Data from ChEMBL document CHEMBL1201862, “PubChem BioAssay data set” (2004).
Calls of active or inactive are those of the source.

Key:
[1] = Luminescence-based counterscreen assay for KLF5 inhibitors: dose response cell-based high throughput screening assay to identify cytotoxic compounds using the IEC-6 intestinal epithelial cell line. [Related pubchem assays: 1700 (Primary screen.), 1834 (Confirmation screen.), 1858 (Summary AID.), 1905 (Counterscreen.)]; assay type: functional
[2] = biological target: T1, Cytochrome P450 3A4 (Homo sapiens, UniProt P08684);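 further: CYP3A4 tested as one member of a cytochrome P450 panel screen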
T1 sequence (P08684 whole entry): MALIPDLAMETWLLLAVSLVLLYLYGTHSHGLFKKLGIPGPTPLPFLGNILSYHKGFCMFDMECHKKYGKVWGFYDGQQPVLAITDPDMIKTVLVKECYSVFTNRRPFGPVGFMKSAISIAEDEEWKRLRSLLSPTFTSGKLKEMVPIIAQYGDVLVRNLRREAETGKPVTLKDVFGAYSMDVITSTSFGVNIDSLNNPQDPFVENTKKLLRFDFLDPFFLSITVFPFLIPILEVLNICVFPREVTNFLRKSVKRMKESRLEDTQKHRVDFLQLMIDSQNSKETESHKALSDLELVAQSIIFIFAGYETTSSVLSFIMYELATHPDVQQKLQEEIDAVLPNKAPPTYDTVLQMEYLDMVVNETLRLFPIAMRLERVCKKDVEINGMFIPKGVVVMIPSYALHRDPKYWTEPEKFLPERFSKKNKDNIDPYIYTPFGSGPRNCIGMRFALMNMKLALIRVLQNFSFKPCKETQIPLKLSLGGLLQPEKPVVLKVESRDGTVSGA

[3] = system: BJ; experiment: cells; assay type: functional, cell-based; details: Homo sapiens
[4] = system: BJ; experiment: cytotoxicity toward BJ-TERT fibroblasts, dose response, cell-based, RAS-independent, luminescence (AID 1933); assay type: functional; details: Homo sapiens
[5] = cytotoxicity toward DRD oncogenic fibroblasts, dose response, cell-based, non-viral oncogenic, luminescence (AID 1934); assay type: functional; details: Homo sapiens
[6] = system: BJ; experiment: cytotoxicity toward BJ-TERT-LT-ST fibroblasts, dose response, cell-based, RAS-independent, luminescence (AID 1935); assay type: functional; details: Homo sapiens;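 further: BJ fibroblasts immortalized with TERT plus LT and ST oncogenes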
[7] = biological target: T2, Mannose-6-phosphate isomerase (Homo sapiens, UniProt P34949); experiment: human PMI inhibitors, high substrate, primary screen, biochemical, fluorescence intensity, high mannose 6-phosphate (AID 1220)
T2 sequence (P34949 whole entry): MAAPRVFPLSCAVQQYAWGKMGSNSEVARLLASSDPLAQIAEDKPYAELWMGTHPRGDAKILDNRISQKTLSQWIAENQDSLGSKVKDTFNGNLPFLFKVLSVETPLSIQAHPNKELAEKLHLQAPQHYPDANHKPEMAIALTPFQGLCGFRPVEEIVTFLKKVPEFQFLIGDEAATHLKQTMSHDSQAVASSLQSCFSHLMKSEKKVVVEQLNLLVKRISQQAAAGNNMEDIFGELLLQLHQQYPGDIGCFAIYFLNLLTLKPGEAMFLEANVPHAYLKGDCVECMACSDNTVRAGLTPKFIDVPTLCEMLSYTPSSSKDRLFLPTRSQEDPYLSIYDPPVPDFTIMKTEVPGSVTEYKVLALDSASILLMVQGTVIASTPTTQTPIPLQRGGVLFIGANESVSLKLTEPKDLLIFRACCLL

[8] = biological target: T2, Mannose-6-phosphate isomerase; experiment: inhibitors of human PMI, primary screen, biochemical, fluorescence intensity, coupled assay (AID 1209)
[9] = biological target: T3, Neuropeptide Y receptor type 2 (Homo sapiens, UniProt P49146); assay type: functional, cell-based;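 further: HEK293 cells expressing the receptor and a CNG channel; stimulus was NPY near EC95 followed by isoproterenol to raise cAMP; antagonist potency measured as restoring cAMP signal that NPY suppresses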
T3 sequence (P49146 whole entry): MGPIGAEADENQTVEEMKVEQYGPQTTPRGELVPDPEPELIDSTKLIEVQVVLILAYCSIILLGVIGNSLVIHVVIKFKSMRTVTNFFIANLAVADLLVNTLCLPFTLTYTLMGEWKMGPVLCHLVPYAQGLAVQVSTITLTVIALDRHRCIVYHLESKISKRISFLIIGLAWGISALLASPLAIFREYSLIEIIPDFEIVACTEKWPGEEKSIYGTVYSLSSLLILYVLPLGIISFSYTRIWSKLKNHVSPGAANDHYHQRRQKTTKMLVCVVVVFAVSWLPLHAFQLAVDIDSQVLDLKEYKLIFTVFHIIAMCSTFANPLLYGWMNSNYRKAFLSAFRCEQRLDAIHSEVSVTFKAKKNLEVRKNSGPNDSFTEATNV

[10] = biological target: T4, Neuropeptide Y receptor type 1 (Homo sapiens, UniProt P25929); assay type: functional;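 further: HEK293 cells with a CNG channel challenged with NPY then isoproterenol; potency as antagonist that reverses NPY suppression of cAMP signal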
T4 sequence (P25929 whole entry): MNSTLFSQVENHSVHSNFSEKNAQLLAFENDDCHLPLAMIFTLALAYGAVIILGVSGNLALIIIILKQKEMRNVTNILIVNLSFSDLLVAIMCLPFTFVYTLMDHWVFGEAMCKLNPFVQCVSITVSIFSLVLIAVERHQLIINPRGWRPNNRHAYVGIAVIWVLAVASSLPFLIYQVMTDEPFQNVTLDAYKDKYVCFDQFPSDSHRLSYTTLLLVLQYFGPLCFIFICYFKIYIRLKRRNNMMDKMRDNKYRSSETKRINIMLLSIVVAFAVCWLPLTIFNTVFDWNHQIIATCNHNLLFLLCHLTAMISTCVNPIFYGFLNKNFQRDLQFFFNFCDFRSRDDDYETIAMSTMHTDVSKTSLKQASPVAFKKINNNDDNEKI

[11] = inhibitors of intracellular T. cruzi replication, confirmation, NIH3T3 host cells, beta-gal luminescence (AID 2044); assay type: functional, cell-based;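 further: intracellular parasites grown in NIH/3T3 mouse fibroblasts as host cells; luminescent beta-galactosidase reporter signal from transgenic T. cruzi replicating inside host cells; inhibitors lower the luminescence signal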
[12] = cytotoxicity toward NIH3T3 fibroblasts, dose response, counter-screen, cell-based, ATP luminescence, mouse fibroblasts (AID 2010); assay type: functional;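 further: cells exposed to compound for about 90 hours before reading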
[13] = cells
[14] = Luminescence Cell-Based Dose Confirmation HTS to Identify Inhibitors of Platelet Dense Granule Release. [Related pubchem assays: 1663 (Primary HTS), 1678 (Summary of Project)]; assay type: functional
[15] = biological target: Luciferin 4-monooxygenase (Photinus pyralis, UniProt P08659); experiment: firefly luciferase enzyme inhibitors, dose response, biochemical, luminescence (AID 1891)
[16] = MC4R antagonists, dose response, counter-screen for LGR2 antagonist project, cell-based, plate reader, cherry pick (AID 743444); assay type: functional;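 further: transfected HEK 293 cells stimulated with alpha-MSH peptide; potency of inhibitors of the alpha-MSH evoked signal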
[17] = inhibitors of firefly luciferase expression or activity, dose response, H4 neuroglioma cells, luminescence (AID 1990); assay type: functional, cell-based
[18] = LGR2 antagonists, dose response, cell-based, HEK293, CRE-luciferase reporter, cherry pick, set 2 (AID 743343); assay type: functional;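 further: transfected cells were stimulated with diluted bursicon conditioned medium after compound addition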
[19] = HEK293 cell cytotoxicity, dose response, cytotoxicity control, plate reader, cherry-picked samples (AID 743446); assay type: functional, cell-based
[20] = Luminescence Cell-Based Dose Response HTS to Identify Inhibitors of 5'UTR Stem-Loop Driven Prion Protein mRNA Translation in H4 Neuroglioblastoma Cells. [Related pubchem assays: 1827 (Project Summary), 1813 (Primary HTS)]; assay type: functional
[21] = biological target: T5, Cytochrome P450 2C19 (Homo sapiens, UniProt P33261); experiment: qHTS Assay for Inhibitors and Substrates of Cytochrome P450 2C19. [Related pubchem assays: 410 ]; assay type: ADME; details: read-out: Potency
T5 sequence (P33261 whole entry): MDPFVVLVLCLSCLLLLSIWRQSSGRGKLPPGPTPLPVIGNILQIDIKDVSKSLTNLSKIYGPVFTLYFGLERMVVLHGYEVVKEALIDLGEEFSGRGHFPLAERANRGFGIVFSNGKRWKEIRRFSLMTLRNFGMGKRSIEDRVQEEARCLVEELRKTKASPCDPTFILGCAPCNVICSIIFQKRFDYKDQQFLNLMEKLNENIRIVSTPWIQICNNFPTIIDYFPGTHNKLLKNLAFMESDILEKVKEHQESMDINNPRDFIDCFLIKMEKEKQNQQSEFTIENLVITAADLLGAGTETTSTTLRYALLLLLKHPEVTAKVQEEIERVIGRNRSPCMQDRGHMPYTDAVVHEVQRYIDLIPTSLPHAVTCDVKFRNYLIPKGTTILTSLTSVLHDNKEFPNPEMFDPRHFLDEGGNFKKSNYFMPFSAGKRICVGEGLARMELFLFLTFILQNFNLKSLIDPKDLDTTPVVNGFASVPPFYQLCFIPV

[22] = biological target: Peroxisome proliferator-activated receptor gamma/Nuclear receptor coactivator 1 (Homo sapiens, UniProt P37231); assay type: functional;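 further: agonist potency as compounds enhance coactivator SRC-1 recruitment to PPARgamma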
Peroxisome proliferator-activated receptor gamma/Nuclear receptor coactivator 1, sequence (P37231 whole entry): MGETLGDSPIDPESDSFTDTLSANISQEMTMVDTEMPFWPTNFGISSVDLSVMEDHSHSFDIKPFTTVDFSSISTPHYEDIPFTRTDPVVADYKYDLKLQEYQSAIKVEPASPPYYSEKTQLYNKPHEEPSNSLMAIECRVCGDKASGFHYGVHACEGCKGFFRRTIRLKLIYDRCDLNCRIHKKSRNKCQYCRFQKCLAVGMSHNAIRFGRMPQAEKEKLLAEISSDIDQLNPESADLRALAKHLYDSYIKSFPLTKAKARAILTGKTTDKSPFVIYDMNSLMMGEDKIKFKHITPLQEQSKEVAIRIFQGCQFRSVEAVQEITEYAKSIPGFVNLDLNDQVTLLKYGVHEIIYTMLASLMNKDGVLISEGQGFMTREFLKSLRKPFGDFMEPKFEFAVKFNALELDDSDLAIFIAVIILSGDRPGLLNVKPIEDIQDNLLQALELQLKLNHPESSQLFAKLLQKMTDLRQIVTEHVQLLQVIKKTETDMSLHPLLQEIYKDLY
Peroxisome proliferator-activated receptor gamma/Nuclear receptor coactivator 1, sequence (Q15788 whole entry, further chain): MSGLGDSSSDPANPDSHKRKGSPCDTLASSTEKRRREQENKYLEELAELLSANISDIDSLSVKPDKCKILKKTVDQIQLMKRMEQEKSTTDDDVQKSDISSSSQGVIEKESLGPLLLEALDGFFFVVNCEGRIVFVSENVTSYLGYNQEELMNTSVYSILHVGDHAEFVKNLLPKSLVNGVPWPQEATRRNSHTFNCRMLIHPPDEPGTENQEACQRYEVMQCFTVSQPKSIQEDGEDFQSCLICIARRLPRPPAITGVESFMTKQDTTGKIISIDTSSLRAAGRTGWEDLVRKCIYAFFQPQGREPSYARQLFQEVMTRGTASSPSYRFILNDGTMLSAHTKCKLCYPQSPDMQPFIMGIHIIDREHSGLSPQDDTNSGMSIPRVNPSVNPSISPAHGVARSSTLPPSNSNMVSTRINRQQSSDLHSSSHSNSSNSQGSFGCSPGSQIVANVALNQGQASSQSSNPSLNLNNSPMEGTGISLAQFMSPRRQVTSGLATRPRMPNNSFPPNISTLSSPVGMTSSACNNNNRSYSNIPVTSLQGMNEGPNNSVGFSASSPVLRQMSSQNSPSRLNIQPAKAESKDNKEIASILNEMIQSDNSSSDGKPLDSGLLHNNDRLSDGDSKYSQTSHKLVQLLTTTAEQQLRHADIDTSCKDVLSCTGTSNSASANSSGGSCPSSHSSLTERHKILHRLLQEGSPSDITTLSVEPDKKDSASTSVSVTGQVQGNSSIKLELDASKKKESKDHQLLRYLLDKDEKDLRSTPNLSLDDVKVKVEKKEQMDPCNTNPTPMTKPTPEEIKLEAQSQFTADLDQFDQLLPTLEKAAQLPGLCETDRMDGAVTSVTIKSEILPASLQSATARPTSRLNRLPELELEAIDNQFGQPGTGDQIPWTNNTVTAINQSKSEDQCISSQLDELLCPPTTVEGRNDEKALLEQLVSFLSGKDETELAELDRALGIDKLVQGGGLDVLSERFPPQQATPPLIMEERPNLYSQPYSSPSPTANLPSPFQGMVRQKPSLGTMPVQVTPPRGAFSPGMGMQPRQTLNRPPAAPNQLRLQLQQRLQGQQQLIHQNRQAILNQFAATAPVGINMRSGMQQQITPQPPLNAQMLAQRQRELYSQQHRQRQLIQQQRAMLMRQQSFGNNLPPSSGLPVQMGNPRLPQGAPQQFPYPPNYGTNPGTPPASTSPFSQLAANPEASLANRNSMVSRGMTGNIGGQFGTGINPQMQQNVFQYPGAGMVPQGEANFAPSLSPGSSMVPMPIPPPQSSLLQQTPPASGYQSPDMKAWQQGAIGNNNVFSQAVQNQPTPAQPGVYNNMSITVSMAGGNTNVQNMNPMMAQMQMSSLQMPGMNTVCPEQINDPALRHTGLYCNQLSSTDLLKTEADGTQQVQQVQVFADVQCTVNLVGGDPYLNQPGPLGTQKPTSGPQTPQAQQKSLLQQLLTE

[23] = biological target: Peroxisome proliferator-activated receptor gamma/Nuclear receptor coactivator 3 (Homo sapiens, UniProt P37231); assay type: functional;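 further: agonist potency for raising coactivator recruitment to the receptor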
Peroxisome proliferator-activated receptor gamma/Nuclear receptor coactivator 3, sequence (P37231 whole entry): as the sequence (P37231 whole entry) above
Peroxisome proliferator-activated receptor gamma/Nuclear receptor coactivator 3, sequence (Q9Y6Q9 whole entry, further chain): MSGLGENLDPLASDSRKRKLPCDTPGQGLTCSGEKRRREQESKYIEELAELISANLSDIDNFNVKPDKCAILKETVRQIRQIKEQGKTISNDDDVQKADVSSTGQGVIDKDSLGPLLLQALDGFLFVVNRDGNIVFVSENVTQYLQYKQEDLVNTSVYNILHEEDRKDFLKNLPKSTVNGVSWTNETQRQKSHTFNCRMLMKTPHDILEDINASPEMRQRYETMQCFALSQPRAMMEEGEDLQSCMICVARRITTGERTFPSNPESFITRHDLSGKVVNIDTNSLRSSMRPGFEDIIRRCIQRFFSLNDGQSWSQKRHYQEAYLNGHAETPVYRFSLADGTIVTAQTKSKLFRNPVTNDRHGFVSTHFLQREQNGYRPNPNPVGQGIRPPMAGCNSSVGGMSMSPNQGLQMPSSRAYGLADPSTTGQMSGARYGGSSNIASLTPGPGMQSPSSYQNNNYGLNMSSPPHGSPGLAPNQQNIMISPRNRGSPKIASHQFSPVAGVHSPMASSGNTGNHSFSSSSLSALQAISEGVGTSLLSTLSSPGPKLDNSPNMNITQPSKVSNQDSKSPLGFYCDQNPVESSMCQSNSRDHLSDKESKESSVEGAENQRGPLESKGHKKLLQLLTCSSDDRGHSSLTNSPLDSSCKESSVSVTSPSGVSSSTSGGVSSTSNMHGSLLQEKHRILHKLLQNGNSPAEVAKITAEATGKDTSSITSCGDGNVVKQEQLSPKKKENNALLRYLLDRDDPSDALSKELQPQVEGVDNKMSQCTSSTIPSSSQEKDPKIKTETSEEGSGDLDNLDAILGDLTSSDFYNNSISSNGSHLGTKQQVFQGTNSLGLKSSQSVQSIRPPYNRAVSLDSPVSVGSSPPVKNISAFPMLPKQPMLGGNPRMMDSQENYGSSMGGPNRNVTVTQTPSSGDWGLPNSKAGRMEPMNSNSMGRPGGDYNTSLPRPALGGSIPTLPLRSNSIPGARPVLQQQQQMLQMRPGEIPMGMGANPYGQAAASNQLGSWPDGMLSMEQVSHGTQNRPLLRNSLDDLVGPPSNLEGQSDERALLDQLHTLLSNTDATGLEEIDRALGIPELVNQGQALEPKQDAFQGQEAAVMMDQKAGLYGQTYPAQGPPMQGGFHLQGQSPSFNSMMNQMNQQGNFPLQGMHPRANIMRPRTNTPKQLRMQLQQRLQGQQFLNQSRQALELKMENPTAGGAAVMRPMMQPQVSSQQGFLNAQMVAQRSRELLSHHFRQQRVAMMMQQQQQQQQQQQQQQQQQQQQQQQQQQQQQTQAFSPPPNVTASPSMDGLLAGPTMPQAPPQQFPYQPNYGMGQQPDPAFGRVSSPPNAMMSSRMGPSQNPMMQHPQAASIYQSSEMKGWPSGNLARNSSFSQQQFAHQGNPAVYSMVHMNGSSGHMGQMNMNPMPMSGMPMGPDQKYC

[24] = biological target: T1, Cytochrome P450 3A4; remark: listed apart in the source
[25] = biological target: Peroxisome proliferator-activated receptor gamma/Nuclear receptor coactivator 2 (Homo sapiens, UniProt P37231); assay type: functional;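 further: agonist potency for raising coactivator recruitment to the receptor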
[26] = biological target: Cytochrome P450 2C9 (Homo sapiens, UniProt P11712)
[27] = biological target: T5, Cytochrome P450 2C19; experiment: Cytochrome panel assay with activity outcomes. Panel member name: p450-cyp2c19 Compounds with AC50 equal or less than 10 uM are considered active; assay type: functional; details: read-out: AC50
[28] = HepG2 cell cytotoxicity, dose response, cytotoxicity control, cherry-picked samples (AID 1159577); assay type: functional, cell-based
[29] = P. falciparum Dd2 growth inhibitors, dose response, SYBR Green, cherry-picked samples (AID 1159567); assay type: functional, cell-based
[30] = biological target: T6, Histone-lysine N-methyltransferase NSD2 (Homo sapiens, UniProt O96028); assay type: biochemical
T6 sequence (O96028 whole entry): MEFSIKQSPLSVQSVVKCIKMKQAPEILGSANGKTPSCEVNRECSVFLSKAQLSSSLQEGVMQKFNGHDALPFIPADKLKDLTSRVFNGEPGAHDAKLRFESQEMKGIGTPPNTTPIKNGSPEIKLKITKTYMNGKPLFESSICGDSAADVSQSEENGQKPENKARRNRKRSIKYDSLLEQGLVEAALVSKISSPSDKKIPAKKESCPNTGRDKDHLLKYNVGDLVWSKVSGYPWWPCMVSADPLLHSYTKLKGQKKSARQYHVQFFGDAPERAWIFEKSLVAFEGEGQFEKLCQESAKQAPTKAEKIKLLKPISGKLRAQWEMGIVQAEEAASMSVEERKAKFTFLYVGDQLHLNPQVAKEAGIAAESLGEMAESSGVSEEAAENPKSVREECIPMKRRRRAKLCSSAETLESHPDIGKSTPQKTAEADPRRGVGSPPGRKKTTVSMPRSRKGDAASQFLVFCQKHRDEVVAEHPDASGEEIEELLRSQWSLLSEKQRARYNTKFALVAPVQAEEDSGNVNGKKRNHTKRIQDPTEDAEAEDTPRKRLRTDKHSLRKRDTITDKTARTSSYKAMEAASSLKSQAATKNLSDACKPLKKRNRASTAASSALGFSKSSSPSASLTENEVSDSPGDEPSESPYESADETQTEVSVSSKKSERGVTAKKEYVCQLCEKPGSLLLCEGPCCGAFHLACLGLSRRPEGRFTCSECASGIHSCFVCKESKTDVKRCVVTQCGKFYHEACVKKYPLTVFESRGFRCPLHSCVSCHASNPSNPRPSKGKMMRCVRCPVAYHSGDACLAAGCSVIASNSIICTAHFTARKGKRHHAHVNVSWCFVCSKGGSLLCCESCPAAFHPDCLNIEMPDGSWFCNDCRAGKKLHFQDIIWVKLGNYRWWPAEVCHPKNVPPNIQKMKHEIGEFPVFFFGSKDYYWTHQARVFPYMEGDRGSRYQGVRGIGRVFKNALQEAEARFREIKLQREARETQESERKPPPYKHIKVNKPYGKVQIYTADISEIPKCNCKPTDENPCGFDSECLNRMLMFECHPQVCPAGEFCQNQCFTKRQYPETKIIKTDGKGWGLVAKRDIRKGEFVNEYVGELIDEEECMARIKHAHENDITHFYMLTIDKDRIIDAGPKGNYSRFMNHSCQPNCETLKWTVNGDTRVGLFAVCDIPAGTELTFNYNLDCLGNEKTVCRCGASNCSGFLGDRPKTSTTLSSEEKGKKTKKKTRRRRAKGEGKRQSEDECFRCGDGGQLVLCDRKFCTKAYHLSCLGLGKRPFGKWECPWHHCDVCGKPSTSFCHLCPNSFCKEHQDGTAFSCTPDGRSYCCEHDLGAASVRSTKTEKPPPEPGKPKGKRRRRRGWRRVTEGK

COC(=O)c1ccc(Oc2cc(C)nc(-n3nc(C)cc3C)n2)cc1
IC50 [1]: 34.2 µM (not active) | AC50 [2]: 39.8 µM (inconclusive) | EC50 [3]: 0.851 µM (active) | EC50 [4]: 0.69 µM (active) | EC50 [5]: 2.25 µM (active) | EC50 [6]: 0.699 µM (active)

O=C(O)/C=C/C(=O)Nc1ccc2c(c1)NC(=O)CO2
IC50 [7]: > 50 µM (not active) | IC50 [8]: > 50 µM (not active)

S=C(NCCc1ccccc1)N/N=C/c1ccccc1Cl
IC50 [9]: 5.07 µM (active) | IC50 [10]: 5.02 µM (active)

COc1ccc(OC)c(Nc2cc(C)nc3nc(C)nn23)c1
IC50 [1]: 13 µM (not active)

O=C(COC(=O)/C=C/c1ccc(Cl)cc1)Nc1ccccc1-c1ccccc1
IC50 [9]: 8.06 µM (active) | IC50 [10]: 6.13 µM (active)

Cc1ccc2nc(N(CCCN(C)C)C(=O)c3ccco3)sc2c1
EC50 [11]: < 0.1 µM (active) | EC50 [12]: > 60 µM (not active) | EC50 [13]: 0.036 µM (active)

Clc1ccccc1/C=C/c1nc(-c2ccccn2)no1
EC50 [14]: 6.25 µM (active) | IC50 [1]: > 39.8 µM (not active) | EC50 [15]: 1.87 µM (active) | AC50 [16]: 2.74 µM (active) | EC50 [17]: 3.76 µM (active) | AC50 [18]: 2 µM (active) | AC50 [19]: > 52 µM (inactive) | EC50 [20]: 5.54 µM (active)

CCOc1cc2c(C#N)c(N3CCOCC3)nc(N)c2c(N)n1
IC50 [7]: > 50 µM (not active) | IC50 [8]: > 50 µM (not active)

O=C(NCCc1c[nH]c2ccccc12)c1cc([N+](=O)[O-])cc([N+](=O)[O-])c1
EC50 [11]: < 0.1 µM (active) | EC50 [12]: > 60 µM (not active) | EC50 [13]: 0.264 µM (active)

COc1ccc(/C=C/C(=O)c2ccc(OC)cc2O)cc1
AC50 [21]: 0.398 µM (inconclusive)

Cc1cc(Cl)ccc1Oc1ncnc2oc(-c3ccccc3)cc12
EC50 [22]: > 79.4 µM (not active) | EC50 [23]: > 79.4 µM (not active) | AC50 [24]: inconclusive | EC50 [25]: > 79.4 µM (not active)

CCOC(=O)OCC1OC(CCc2ccccc2)CCC1Oc1ccc(OC)cc1 (centres undefined)
AC50 [21]: 2.51 µM (inconclusive)

N#Cc1c(-c2ccccc2)cc(-c2ccccc2)nc1SCc1nnc(-c2ccccc2)o1
EC50 [22]: 26.1 µM (not active) | EC50 [23]: 27.6 µM (not active) | AC50 [2]: 7.08 µM (inconclusive) | AC50 [26]: 0.251 µM (inconclusive) | EC50 [25]: 25.1 µM (not active) | AC50 [27]: 1.41 µM (inconclusive)

CCO[C@@H]1OC(C(=O)N2CCN(Cc3ccc4c(c3)OCO4)CC2)=C[C@H](c2csc3ccccc23)[C@H]1CCCO
EC50 [22]: > 79.4 µM (not active) | EC50 [23]: > 79.4 µM (not active) | EC50 [25]: > 79.4 µM (not active)

Cc1cc(C(=O)N(C)CC2CCCN(CCc3ccc(F)cc3)C2)c(C)o1 (centres undefined)
EC50 [11]: < 0.1 µM (active) | EC50 [12]: > 60 µM (not active) | EC50 [13]: 0.279 µM (active)

COc1ccc(S(=O)(=O)N(C)C[C@H]2Oc3c(NC(=O)Nc4ccccc4)cccc3C(=O)N([C@@H](C)CO)C[C@H]2C)cc1
AC50 [28]: 33.8 µM (active) | AC50 [29]: 4.8 µM (active)

C(=N/Nc1cc(N2CCOCC2)nc(N2CCOCC2)n1)/c1ccccc1
IC50 [7]: > 50 µM (not active) | IC50 [8]: > 50 µM (not active) | AC50 [30]: > 20 µM (inactive)

CCC(Oc1ccc2c(=O)c(-c3ccccc3OC)coc2c1)C(=O)OCc1ccccc1 (centres undefined)
IC50 [9]: 4.12 µM (active) | IC50 [10]: 11.5 µM (not active)
